Laboratory results taken from patent US12304932B2, “PACAP stabilized peptide” (SENJU PHARMACEUTICAL CO., LTD., priority 2017, dated 2025).
Numbered stars: 1 amine (or outer) side, 2 acyl side, 3 side chain; on linkers, the order of the positions; unused ones are H or OH. Square brackets hold non-standard residues; d marks the D form. Peptide text beside a SMILES is read from it. Ala(1H-tetrazol-5-yl) = N[C@@H](Cc1nnn[nH]1)C(=O)O; X1 = O=C([C@H](CCc1nnn[nH]1)N[*:1])[*:2]

Assay: Peptide stability tests 2 and 3: Tris buffer pH 7.0, stored at 60° C., HPLC conditions 2
Assay type: physicochemical
Settings: 100 μM peptide, Tris buffer pH 7.0, 60° C.; for survival rate after correction for water, 60° C., 2-week storage: 2 weeks
Experimental: (§1) Peptides 1, 2 and 6 to 9 synthesized in Example 2 were weighed and dissolved in Tris buffer (pH 7.0) to prepare 1.0 mM peptide solutions. The solutions were filtered with a Chromatdisk (product of Merck Millipore, Millex-GV, 0.22 μm). Each filtrate was diluted to 100 μM with Tris buffer (pH 7.0) and dispensed into a tube (Protein LoBind Tube by Eppendorf Co.). The prepared peptide solutions were incubated for 1 week or 2 weeks in a 60° C. thermostatic bath to obtain stored samples. A simultaneously prepared sample among the peptide solutions that was not stored was used as a standard sample (initial sample). The standard sample and the stored samples were stored at −30° C. until sample analysis.
Each stored sample was measured under the following HPLC analysis conditions 2, and the survival rate after correction for water for each peptide among the stored samples was calculated in the same manner as Example 3.
Column: XSelect CSH C18 by Waters Co., 5 μm, 4.6×250 mm
Guard column: XSelect CSH C18 by Waters. Co., 5 μm, 4.6×20 mm Guard Cartridge
Detection wavelength: 220 nm
Mobile phase A: 0.1% formic acid in water
Mobile phase B: 0.1% formic acid in acetonitrile
Measuring time: 20 minutes
Measuring sample injection rate: 50 μL
Column temperature: 40° C.
Mobile phase delivery: The mixing ratio of mobile phase A and mobile phase B was varied as shown in Table 5 for linear concentration gradient control.
as §1, with “Peptides 12 to 25, 27” for “Peptides 1, 2”, “and 28” for “and 6 to 9”, “for one” for “for 1”
The survival rate after correction for water for each peptide among the stored samples was calculated in the same manner as Example 4, and the results are shown in Table 7.
as §1, with “29” for “1, 2 and 6”, “34” for “9”, “for” for “for 1 week or”
The survival rate after correction for water for each peptide among the stored samples was calculated in the same manner as Example 4, and the results are shown in Table 7-2.

Structure (SMILES)	survival rate after correction for water, 60° C., 1-week storage [%]	survival rate after correction for water, 60° C., 2-week storage [%]
CC[C@H](C)[C@H](NC(=O)CNC(=O)[C@H](Cc1nnn[nH]1)NC(=O)[C@H](CO)NC(=O)[C@H](Cc1c[nH]cn1)NC(C)=O)C(=O)N[C@@H](Cc1ccccc1)C(=O)N[C@H](C(=O)N[C@@H](Cc1nnn[nH]1)C(=O)N[C@@H](CO)C(=O)N[C@@H](Cc1ccc(O)cc1)C(=O)N[C@@H](CO)C(=O)N[C@@H](CCCNC(=N)N)C(=O)N[C@@H](Cc1ccc(O)cc1)C(=O)N[C@@H](CCCNC(=N)N)C(=O)N[C@@H](CCCCN)C(=O)N[C@@H](CCc1nnn[nH]1)C(=O)N[C@@H](CC(C)C)C(=O)N[C@@H](C)C(=O)N[C@H](C(=O)N[C@@H](CCCCN)C(=O)N[C@@H](CCCCN)C(=O)N[C@@H](Cc1ccc(O)cc1)C(=O)N[C@@H](CC(C)C)C(=O)N[C@@H](C)C(=O)N[C@@H](C)C(=O)N[C@H](C(=O)N[C@@H](CC(C)C)C(N)=O)C(C)C)C(C)C)[C@@H](C)O [Peptide 13] (Ac-HS[Ala(1H-tetrazol-5-yl)]GIFT[Ala(1H-tetrazol-5-yl)]SYSRYRK[X1]LAVKKYLAAVL-NH2)	97.4	95.4
CC[C@H](C)[C@H](NC(=O)CNC(=O)[C@H](Cc1nnn[nH]1)NC(=O)[C@H](C)NC(=O)[C@H](Cc1c[nH]cn1)NC(C)=O)C(=O)N[C@@H](Cc1ccccc1)C(=O)N[C@H](C(=O)N[C@@H](Cc1nnn[nH]1)C(=O)N[C@@H](CO)C(=O)N[C@@H](Cc1ccc(O)cc1)C(=O)N[C@@H](CO)C(=O)N[C@@H](CCCNC(=N)N)C(=O)N[C@@H](Cc1ccc(O)cc1)C(=O)N[C@@H](CCCNC(=N)N)C(=O)N[C@@H](CCCCN)C(=O)N[C@@H](CCC(N)=O)C(=O)N[C@@H](CC(C)C)C(=O)N[C@@H](C)C(=O)N[C@H](C(=O)N[C@@H](CCCCN)C(=O)N[C@@H](CCCCN)C(=O)N[C@@H](Cc1ccc(O)cc1)C(=O)N[C@@H](CC(C)C)C(=O)N[C@@H](C)C(=O)N[C@@H](C)C(=O)N[C@H](C(=O)N[C@@H](CC(C)C)C(N)=O)C(C)C)C(C)C)[C@@H](C)O [Peptide 14] (Ac-HA[Ala(1H-tetrazol-5-yl)]GIFT[Ala(1H-tetrazol-5-yl)]SYSRYRKQLAVKKYLAAVL-NH2)	96.7	94.5
CC[C@H](C)[C@H](NC(=O)CNC(=O)[C@H](Cc1nnn[nH]1)NC(=O)[C@H](CO)NC(=O)[C@H](Cc1c[nH]cn1)NC(C)=O)C(=O)N[C@@H](Cc1ccccc1)C(=O)N[C@H](C(=O)N[C@@H](Cc1nnn[nH]1)C(=O)N[C@@H](C)C(=O)N[C@@H](Cc1ccc(O)cc1)C(=O)N[C@@H](CO)C(=O)N[C@@H](CCCNC(=N)N)C(=O)N[C@@H](Cc1ccc(O)cc1)C(=O)N[C@@H](CCCNC(=N)N)C(=O)N[C@@H](CCCCN)C(=O)N[C@@H](CCC(N)=O)C(=O)N[C@@H](CC(C)C)C(=O)N[C@@H](C)C(=O)N[C@H](C(=O)N[C@@H](CCCCN)C(=O)N[C@@H](CCCCN)C(=O)N[C@@H](Cc1ccc(O)cc1)C(=O)N[C@@H](CC(C)C)C(=O)N[C@@H](C)C(=O)N[C@@H](C)C(=O)N[C@H](C(=O)N[C@@H](CC(C)C)C(N)=O)C(C)C)C(C)C)[C@@H](C)O [Peptide 15] (Ac-HS[Ala(1H-tetrazol-5-yl)]GIFT[Ala(1H-tetrazol-5-yl)]AYSRYRKQLAVKKYLAAVL-NH2)	97.3	94.9
CC[C@H](C)[C@H](NC(=O)CNC(=O)[C@H](Cc1nnn[nH]1)NC(=O)[C@H](CO)NC(=O)[C@H](Cc1c[nH]cn1)NC(C)=O)C(=O)N[C@@H](Cc1ccccc1)C(=O)N[C@H](C(=O)N[C@@H](Cc1nnn[nH]1)C(=O)N[C@@H](CO)C(=O)N[C@@H](Cc1ccc(O)cc1)C(=O)N[C@@H](C)C(=O)N[C@@H](CCCNC(=N)N)C(=O)N[C@@H](Cc1ccc(O)cc1)C(=O)N[C@@H](CCCNC(=N)N)C(=O)N[C@@H](CCCCN)C(=O)N[C@@H](CCC(N)=O)C(=O)N[C@@H](CC(C)C)C(=O)N[C@@H](C)C(=O)N[C@H](C(=O)N[C@@H](CCCCN)C(=O)N[C@@H](CCCCN)C(=O)N[C@@H](Cc1ccc(O)cc1)C(=O)N[C@@H](CC(C)C)C(=O)N[C@@H](C)C(=O)N[C@@H](C)C(=O)N[C@H](C(=O)N[C@@H](CC(C)C)C(N)=O)C(C)C)C(C)C)[C@@H](C)O [Peptide 16] (Ac-HS[Ala(1H-tetrazol-5-yl)]GIFT[Ala(1H-tetrazol-5-yl)]SYARYRKQLAVKKYLAAVL-NH2)	98.1	93.5
CC[C@H](C)[C@H](NC(=O)CNC(=O)[C@H](Cc1nnn[nH]1)NC(=O)[C@H](CO)NC(=O)[C@H](Cc1c[nH]cn1)NC(C)=O)C(=O)N[C@@H](Cc1ccccc1)C(=O)N[C@H](C(=O)N[C@@H](Cc1nnn[nH]1)C(=O)N[C@@H](CO)C(=O)N[C@@H](Cc1ccc(O)cc1)C(=O)N[C@@H](CO)C(=O)N[C@@H](CCCNC(=N)N)C(=O)N[C@@H](Cc1ccc(O)cc1)C(=O)N[C@@H](CCCNC(=N)N)C(=O)N[C@@H](CCCCN)C(=O)N[C@@H](C)C(=O)N[C@@H](CC(C)C)C(=O)N[C@@H](C)C(=O)N[C@H](C(=O)N[C@@H](CCCCN)C(=O)N[C@@H](CCCCN)C(=O)N[C@@H](Cc1ccc(O)cc1)C(=O)N[C@@H](CC(C)C)C(=O)N[C@@H](C)C(=O)N[C@@H](C)C(=O)N[C@H](C(=O)N[C@@H](CC(C)C)C(N)=O)C(C)C)C(C)C)[C@@H](C)O [Peptide 17] (Ac-HS[Ala(1H-tetrazol-5-yl)]GIFT[Ala(1H-tetrazol-5-yl)]SYSRYRKALAVKKYLAAVL-NH2)	97.8	93.4
CC[C@H](C)[C@H](NC(=O)CNC(=O)[C@H](Cc1nnn[nH]1)NC(=O)[C@H](CO)NC(=O)[C@H](Cc1c[nH]cn1)NC(C)=O)C(=O)N[C@@H](Cc1ccccc1)C(=O)N[C@H](C(=O)N[C@@H](Cc1nnn[nH]1)C(=O)N[C@@H](CO)C(=O)N[C@@H](Cc1ccc(O)cc1)C(=O)N[C@@H](CO)C(=O)N[C@@H](CCCNC(=N)N)C(=O)N[C@@H](Cc1ccc(O)cc1)C(=O)N[C@@H](CCCNC(=N)N)C(=O)N[C@@H](CCCCN)C(=O)N[C@@H](CCC(N)=O)C(=O)N[C@@H](C)C(=O)N[C@@H](C)C(=O)N[C@H](C(=O)N[C@@H](CCCCN)C(=O)N[C@@H](CCCCN)C(=O)N[C@@H](Cc1ccc(O)cc1)C(=O)N[C@@H](CC(C)C)C(=O)N[C@@H](C)C(=O)N[C@@H](C)C(=O)N[C@H](C(=O)N[C@@H](CC(C)C)C(N)=O)C(C)C)C(C)C)[C@@H](C)O [Peptide 18] (Ac-HS[Ala(1H-tetrazol-5-yl)]GIFT[Ala(1H-tetrazol-5-yl)]SYSRYRKQAAVKKYLAAVL-NH2)	96.7	90.6
CC[C@H](C)[C@H](NC(=O)CNC(=O)[C@H](Cc1nnn[nH]1)NC(=O)[C@H](CO)NC(=O)[C@H](Cc1c[nH]cn1)NC(C)=O)C(=O)N[C@@H](Cc1ccccc1)C(=O)N[C@H](C(=O)N[C@@H](Cc1nnn[nH]1)C(=O)N[C@@H](CO)C(=O)N[C@@H](Cc1ccc(O)cc1)C(=O)N[C@@H](CO)C(=O)N[C@@H](CCCNC(=N)N)C(=O)N[C@@H](Cc1ccc(O)cc1)C(=O)N[C@@H](CCCNC(=N)N)C(=O)N[C@@H](CCCCN)C(=O)N[C@@H](CCC(N)=O)C(=O)N[C@@H](CC(C)C)C(=O)N[C@@H](C)C(=O)N[C@@H](C)C(=O)N[C@@H](CCCCN)C(=O)N[C@@H](CCCCN)C(=O)N[C@@H](Cc1ccc(O)cc1)C(=O)N[C@@H](CC(C)C)C(=O)N[C@@H](C)C(=O)N[C@@H](C)C(=O)N[C@H](C(=O)N[C@@H](CC(C)C)C(N)=O)C(C)C)[C@@H](C)O [Peptide 19] (Ac-HS[Ala(1H-tetrazol-5-yl)]GIFT[Ala(1H-tetrazol-5-yl)]SYSRYRKQLAAKKYLAAVL-NH2)	95.8	92.7
